Source: patent publication US20250332154A1, “USE OF NAPHTHOQUINE PHOSPHATE IN PREPARATION OF A MEDICAMENT FOR TREATING AUTOIMMUNE DISEASES” (SHANGHAI PHARMACEUTICALS INDUSTRY CO., LTD, priority 2022, published 2025)

Key:
IL-1β = IL-1β production by LPS-induced RAW264.7 cells (ELISA); assay type: cell-based, mouse
Protocol: (§1) RAW264.7 cells were inoculated into a 96-well plate at 1×10^5/well and allowed to adhere to the wall for 6 hours in a 37° C., 5% CO2 incubator. […] After the cells adhered to the wall, the stimulant LPS (final concentration: 10 μg/ml) and the gradient-diluted compounds were added. A corresponding stimulation control and a cell control (without stimulation) were set up. After the end of the culture, the cell culture supernatants were collected, and the levels of TNF-α, IL-1β and IL-6 were measured by ELISA.

IL-6 = IL-6 production by LPS-induced RAW264.7 cells (ELISA); assay type: cell-based, mouse
Protocol: as §1

TNF-α = TNF-α production by LPS-induced RAW264.7 cells (ELISA); assay type: cell-based, mouse
Protocol: as §1

RAW264.7 cells = assay: Non-specific cytotoxicity assay (MTT), RAW264.7; assay type: cell-based, mouse; conditions: 48 hours
Protocol: RAW264.7 cells were inoculated into a 96-well plate at 1×10^5/well and allowed to adhere to the wall for 6 hours in a 37° C., 5% CO2 incubator. […] A corresponding solvent control (cell control) and a culture medium background control (blank control) were set up. The cells were cultured in a 37° C., 5% CO2 incubator for 48 hours. Fifteen minutes before the end of the culture, 20 μl of 5 mg/ml MTT was added. At the end of the culture, the supernatant was aspirated and discarded, 200 μl DMSO was added to dissolve the crystals.

[1] = test system: mouse whole spleen lymphocytes (LPS-induced B cell activation and proliferation); assay: LPS-induced lymphocyte proliferation assay (3H-thymidine); assay type: cell-based; conditions: Mus musculus, Lymphocyte, read-out: LPS IC50
Protocol: (§2) BALB/c mice were sacrificed by cervical dislocation, and spleens were aseptically excised to prepare whole spleen lymphocytes. The cells were adjusted to the required concentration.
(§3) A suspension of mouse spleen lymphocytes was inoculated into a 96-well plate at 5×10^5/well, and ConA (final concentration: 1 μg/ml) or LPS (final concentration: 10 μg/ml) and the above 10 concentration gradients of the compound were added. Corresponding cell control wells without ConA and LPS, as well as medicament-free stimulated control wells, were set up. The cells were cultured in a 37° C., 5% CO2 incubator for 48 hours. Eight hours before the end of the culture, ^3H-thymidine was added, and the culture continued until the end of the experiment (i.e., the aforementioned 48 hours). The cells were collected onto glass fiber membranes using a cell collector.
(§4) ConA and LPS, as mitogens, stimulated proliferation and differentiation of T and B lymphocytes, respectively. This process is similar to the activation process of lymphocytes in vivo. Therefore, mitogen-induced lymphocyte proliferation is commonly used as an indicator to evaluate functionality of lymphocytes.

[2] = Non-specific cytotoxicity assay (MTT), mouse spleen lymphocytes; assay type: cell-based; conditions: BALB/c, mouse, mouse whole spleen lymphocytes
Protocol: BALB/c mice were sacrificed by cervical dislocation, and spleens were aseptically excised to prepare whole spleen lymphocytes. The cells were adjusted to the required concentration. The compound concentrations started at 250 μM and was diluted with a 4-fold gradient to obtain 10 concentrations: 250, 62.5, 15.625, 3.906, 0.977, 0.244, 0.061, 0.015, 0.004 and 0.001 μM.
A suspension of mouse spleen lymphocytes was inoculated into a 96-well plate at 8×10^5/well, and the above 10 concentration gradients of the compound were added. A corresponding cell control (i.e. spleen lymphocyte culture system without compound) and a RPMI 1640 culture medium background control (blank culture medium control) were set up. The cells were cultured in a 37° C., 5% CO2 incubator for 48 hours. Four hours before the end of the culture, 20 μl of 5 mg/ml MTT solution was added, and the reaction continued until the end of the culture (i.e. the aforementioned 48 hours). The supernatant was aspirated and discarded, 200 μl DMSO was added to each well to dissolve the crystals. […]. The absorbance value was measured at […] with a microplate reader (Spectra Max 190, Molecular Devices).

[3] = test system: mouse whole spleen lymphocytes (ConA-induced T cell activation and proliferation); assay: ConA-induced lymphocyte proliferation assay (3H-thymidine); assay type: cell-based; conditions: Mus musculus, Lymphocyte, read-out: ConA IC50
Protocol: as §2, §3, §4

Molecule	IC50 (IL-1β; LPS 10 μg/ml, RAW264.7, read-out: IB-1β IC50) [µM]	production of LPS-induced IL-1β (IL-1β; RAW264.7, in words)	IC50 (IL-6; LPS 10 μg/ml, RAW264.7) [µM]	production of IL-6 (IL-6; LPS-induced RAW264.7, in words)	IC50 (TNF-α; LPS 10 μg/ml, RAW264.7) [µM]	production of TNF-α (TNF-α; LPS-induced RAW264.7, in words)	CC50 (RAW264.7 cells) [µM]	IC50 [1] [µM]	CC50 at 48 h [2] [µM]	IC50 [3] [µM]
Chloroquine Sulfate	2.72	significantly inhibited	14.7	no significant effect	32.6	no significant effect	26.6			
CCN(CC)CCCC(C)Nc1ccnc2cc(Cl)ccc12 (stereo not shown) [Chloroquine Phosphate]								15.1	26.9	14.3
